Assay results from patent US12258327B2, “5-membered heteroaryl-containing aminopyridine compounds as EGFR inhibitors” (YUHAN CORPORATION, priority 2021, dated 2025).
Read-outs that look alike come from different tables or passages of the source.

What was measured:
EGFR del19/T790M/C797S = EGFR del19/T790M/C797S (Homo sapiens, UniProt P00533, C797S/DEL746-750/T790M); test: Biochemical EGFR kinase assay (Lance Ultra TR-FRET), triple mutant del19/T790M/C797S
Method in brief: (§1)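 Kinase activity is measured by TR-FRET phosphopeptide detection. Compounds span 0.003 μM to 10 μM; the 1 h reaction at room temperature is quenched with EDTA, then labelled antibody (2 nM) is incubated 60 min before reading.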

EGFR L858R/T790M/C797S = EGFR L858R/T790M/C797S (Homo sapiens, UniProt P00533, C797S/L858R/T790M); test: Biochemical EGFR kinase assay (Lance Ultra TR-FRET), triple mutant L858R/T790M/C797S
Method in brief: as §1

EGFR del19/C797S = EGFR del19/C797S (Homo sapiens, UniProt P00533, C797S/DEL746-750); test: Biochemical EGFR kinase assay (Lance Ultra TR-FRET), double mutant del19/C797S
Method in brief: as §1

EGFR L858R/C797S = EGFR L858R/C797S (Homo sapiens, UniProt P00533, C797S/L858R); test: Biochemical EGFR kinase assay (Lance Ultra TR-FRET), double mutant L858R/C797S
Method in brief: as §1

EGFR wildtype (WT) = EGFR wildtype (WT) (Homo sapiens, UniProt P00533); test: Biochemical EGFR kinase assay (Lance Ultra TR-FRET), wildtype
Method in brief: as §1

[1] = IC50 del19/T790M/C797S (nM) 100 μM ATP, 100 μM ATP
[2] = Km ATP, read-out: IC50 del19/T790M/C797S (nM) Km ATP
[3] = IC50 L858R/T790M/C797S (nM) 100 μM ATP, 100 μM ATP
[4] = Km ATP, read-out: IC50 L858R/T790M/C797S (nM) Km ATP
[5] = IC50 del19/C797S (nM) 100 μM ATP, 100 μM ATP
[6] = Km ATP, read-out: IC50 del19/C797S (nM) Km ATP
[7] = IC50 L858R/C797S (nM) 100 μM ATP, 100 μM ATP
[8] = Km ATP, read-out: IC50 L858R/C797S (nM) Km ATP
[9] = IC50 WT (nM) 100 μM ATP, 100 μM ATP
[10] = Km ATP, read-out: IC50 WT (nM) Km ATP

Chain of EGFR del19/T790M/C797S (P00533 with tags, fused parts or gaps DEL746-750/T790M/C797S): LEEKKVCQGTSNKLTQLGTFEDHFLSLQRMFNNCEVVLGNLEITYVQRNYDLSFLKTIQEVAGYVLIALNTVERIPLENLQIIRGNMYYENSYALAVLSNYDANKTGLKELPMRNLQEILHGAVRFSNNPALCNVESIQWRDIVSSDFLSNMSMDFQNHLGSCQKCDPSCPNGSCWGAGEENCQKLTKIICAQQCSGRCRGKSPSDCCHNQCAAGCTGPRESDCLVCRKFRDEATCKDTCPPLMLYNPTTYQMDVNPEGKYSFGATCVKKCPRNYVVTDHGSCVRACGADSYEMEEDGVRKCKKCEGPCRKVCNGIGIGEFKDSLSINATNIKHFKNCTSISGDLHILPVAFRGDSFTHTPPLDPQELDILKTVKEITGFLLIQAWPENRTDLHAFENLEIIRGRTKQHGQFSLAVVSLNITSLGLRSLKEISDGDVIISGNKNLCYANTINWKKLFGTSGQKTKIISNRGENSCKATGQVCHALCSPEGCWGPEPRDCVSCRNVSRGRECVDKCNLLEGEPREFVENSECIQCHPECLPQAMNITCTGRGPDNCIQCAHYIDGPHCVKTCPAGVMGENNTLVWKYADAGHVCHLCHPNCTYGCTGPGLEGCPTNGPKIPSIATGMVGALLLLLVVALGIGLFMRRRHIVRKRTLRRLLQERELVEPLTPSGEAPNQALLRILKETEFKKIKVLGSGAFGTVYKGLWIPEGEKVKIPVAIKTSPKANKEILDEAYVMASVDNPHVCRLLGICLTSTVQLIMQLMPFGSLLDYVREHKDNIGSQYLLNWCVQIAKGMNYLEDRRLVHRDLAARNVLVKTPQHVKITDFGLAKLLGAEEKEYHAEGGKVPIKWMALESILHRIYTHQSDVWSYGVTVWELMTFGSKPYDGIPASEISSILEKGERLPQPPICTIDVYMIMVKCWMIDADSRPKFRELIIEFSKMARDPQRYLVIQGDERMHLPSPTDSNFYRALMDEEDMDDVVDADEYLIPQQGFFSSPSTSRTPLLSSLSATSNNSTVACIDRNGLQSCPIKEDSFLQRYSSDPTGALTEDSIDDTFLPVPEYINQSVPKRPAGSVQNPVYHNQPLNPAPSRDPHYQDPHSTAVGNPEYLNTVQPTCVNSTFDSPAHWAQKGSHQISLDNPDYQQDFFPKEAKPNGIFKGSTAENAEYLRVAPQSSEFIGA
Chain of EGFR wildtype (WT) (P00533 25-1210): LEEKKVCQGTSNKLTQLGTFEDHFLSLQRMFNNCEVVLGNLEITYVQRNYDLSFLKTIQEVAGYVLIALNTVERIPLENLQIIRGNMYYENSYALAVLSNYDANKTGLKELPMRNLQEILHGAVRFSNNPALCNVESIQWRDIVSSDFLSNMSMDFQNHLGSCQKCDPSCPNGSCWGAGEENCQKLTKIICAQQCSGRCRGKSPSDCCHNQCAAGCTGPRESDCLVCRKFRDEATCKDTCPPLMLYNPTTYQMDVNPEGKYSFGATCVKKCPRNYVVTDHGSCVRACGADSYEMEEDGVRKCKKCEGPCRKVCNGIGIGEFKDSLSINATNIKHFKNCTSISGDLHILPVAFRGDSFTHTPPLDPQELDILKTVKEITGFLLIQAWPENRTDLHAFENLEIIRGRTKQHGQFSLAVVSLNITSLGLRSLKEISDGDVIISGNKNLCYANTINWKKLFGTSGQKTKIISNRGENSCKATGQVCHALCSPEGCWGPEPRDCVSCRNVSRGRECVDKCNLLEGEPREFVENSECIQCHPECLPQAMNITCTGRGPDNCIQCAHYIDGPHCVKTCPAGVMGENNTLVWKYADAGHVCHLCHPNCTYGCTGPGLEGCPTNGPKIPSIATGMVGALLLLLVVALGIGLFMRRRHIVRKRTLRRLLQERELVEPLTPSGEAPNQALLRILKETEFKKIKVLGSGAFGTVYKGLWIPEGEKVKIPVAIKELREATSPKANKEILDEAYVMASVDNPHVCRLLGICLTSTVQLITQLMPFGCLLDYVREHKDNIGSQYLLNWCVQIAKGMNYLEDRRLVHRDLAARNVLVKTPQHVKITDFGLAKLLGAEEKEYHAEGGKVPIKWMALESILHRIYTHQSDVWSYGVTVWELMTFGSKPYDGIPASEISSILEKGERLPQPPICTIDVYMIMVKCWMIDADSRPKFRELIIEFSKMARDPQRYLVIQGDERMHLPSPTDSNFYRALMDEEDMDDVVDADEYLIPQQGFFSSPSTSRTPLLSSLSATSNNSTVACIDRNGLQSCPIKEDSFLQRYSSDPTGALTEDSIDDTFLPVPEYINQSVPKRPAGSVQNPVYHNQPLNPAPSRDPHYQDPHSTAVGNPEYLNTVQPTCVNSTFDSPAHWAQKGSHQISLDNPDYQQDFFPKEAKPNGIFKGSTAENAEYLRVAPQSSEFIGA
Chain of EGFR del19/C797S (P00533 with tags, fused parts or gaps DEL746-750/C797S): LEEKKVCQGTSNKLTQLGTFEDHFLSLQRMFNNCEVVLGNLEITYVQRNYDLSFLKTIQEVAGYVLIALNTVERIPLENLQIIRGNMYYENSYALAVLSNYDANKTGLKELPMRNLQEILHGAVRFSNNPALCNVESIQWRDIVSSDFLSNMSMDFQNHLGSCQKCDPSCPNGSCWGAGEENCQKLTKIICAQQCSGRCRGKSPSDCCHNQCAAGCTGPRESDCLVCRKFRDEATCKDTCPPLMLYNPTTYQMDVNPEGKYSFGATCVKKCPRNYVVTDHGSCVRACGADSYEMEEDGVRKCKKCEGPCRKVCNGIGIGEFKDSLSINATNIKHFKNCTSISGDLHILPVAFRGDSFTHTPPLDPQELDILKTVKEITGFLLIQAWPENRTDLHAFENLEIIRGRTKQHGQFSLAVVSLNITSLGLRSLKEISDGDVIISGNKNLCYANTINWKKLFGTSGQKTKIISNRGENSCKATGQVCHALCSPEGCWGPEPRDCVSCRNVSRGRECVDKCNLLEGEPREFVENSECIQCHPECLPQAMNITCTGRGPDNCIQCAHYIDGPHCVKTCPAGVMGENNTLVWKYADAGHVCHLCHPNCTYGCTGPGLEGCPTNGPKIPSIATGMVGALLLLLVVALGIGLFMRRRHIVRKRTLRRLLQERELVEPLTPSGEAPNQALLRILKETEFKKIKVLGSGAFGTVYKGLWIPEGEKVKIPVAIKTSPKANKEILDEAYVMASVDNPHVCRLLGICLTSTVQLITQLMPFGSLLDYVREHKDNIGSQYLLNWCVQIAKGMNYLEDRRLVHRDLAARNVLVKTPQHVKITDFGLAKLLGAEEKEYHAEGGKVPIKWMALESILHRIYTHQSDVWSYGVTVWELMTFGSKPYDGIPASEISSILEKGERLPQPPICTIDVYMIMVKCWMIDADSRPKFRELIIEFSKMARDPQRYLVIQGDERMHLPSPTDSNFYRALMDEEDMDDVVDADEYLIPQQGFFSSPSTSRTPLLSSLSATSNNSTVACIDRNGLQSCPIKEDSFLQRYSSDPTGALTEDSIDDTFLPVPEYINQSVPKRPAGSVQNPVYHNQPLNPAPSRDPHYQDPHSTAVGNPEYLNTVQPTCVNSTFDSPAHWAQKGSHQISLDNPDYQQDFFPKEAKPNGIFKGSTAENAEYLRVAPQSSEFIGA
Chain of EGFR L858R/T790M/C797S (P00533 25-1210 T790M/C797S/L858R): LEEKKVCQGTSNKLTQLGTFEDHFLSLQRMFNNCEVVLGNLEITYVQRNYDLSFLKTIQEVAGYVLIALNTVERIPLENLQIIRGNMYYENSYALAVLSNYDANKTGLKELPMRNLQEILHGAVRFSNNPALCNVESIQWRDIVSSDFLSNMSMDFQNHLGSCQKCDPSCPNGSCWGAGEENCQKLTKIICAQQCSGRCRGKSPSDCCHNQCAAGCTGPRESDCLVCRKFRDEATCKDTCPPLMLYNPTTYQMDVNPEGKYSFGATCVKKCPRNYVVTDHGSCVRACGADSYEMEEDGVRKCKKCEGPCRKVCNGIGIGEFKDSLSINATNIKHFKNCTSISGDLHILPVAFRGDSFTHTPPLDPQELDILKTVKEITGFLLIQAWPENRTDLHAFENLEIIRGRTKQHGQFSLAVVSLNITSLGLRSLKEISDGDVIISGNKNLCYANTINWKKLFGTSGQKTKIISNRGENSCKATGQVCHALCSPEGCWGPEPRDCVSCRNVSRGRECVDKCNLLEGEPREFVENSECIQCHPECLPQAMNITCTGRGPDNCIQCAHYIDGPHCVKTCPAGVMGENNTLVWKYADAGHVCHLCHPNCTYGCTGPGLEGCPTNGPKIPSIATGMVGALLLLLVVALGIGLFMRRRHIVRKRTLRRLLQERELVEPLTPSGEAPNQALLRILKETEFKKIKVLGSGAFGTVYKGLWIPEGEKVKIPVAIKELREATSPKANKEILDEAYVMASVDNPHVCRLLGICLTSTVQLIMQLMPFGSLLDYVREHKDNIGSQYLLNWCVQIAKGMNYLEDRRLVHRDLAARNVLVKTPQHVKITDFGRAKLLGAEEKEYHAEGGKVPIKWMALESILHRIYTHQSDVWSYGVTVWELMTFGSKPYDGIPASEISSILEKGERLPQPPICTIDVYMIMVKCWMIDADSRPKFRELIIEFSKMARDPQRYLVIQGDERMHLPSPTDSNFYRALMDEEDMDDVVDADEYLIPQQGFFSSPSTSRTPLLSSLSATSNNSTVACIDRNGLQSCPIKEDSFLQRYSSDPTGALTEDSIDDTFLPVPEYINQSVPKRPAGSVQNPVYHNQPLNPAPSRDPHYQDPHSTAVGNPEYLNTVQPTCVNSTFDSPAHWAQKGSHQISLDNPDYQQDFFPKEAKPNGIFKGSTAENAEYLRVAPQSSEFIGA

| Structure (SMILES) | IC50 (EGFR del19/T790M/C797S; [1]) | IC50 (EGFR del19/T790M/C797S; [2]) | IC50 (EGFR L858R/T790M/C797S; [3]) | IC50 (EGFR L858R/T790M/C797S; [4]) | IC50 (EGFR del19/C797S; [5]) | IC50 (EGFR del19/C797S; [6]) | IC50 (EGFR L858R/C797S; [7]) | IC50 (EGFR L858R/C797S; [8]) | IC50 (EGFR wildtype (WT); [9]) | IC50 (EGFR wildtype (WT); [10]) |
| --- | --- | --- | --- | --- | --- | --- | --- | --- | --- | --- |
| O=S(=O)(C1CC1)n1cc(-c2nccc(Nc3cc(N[C@H]4CC[C@@H](NCC(F)F)CC4)c(-c4csc(C(F)(F)F)n4)cn3)n2)cn1 [Example 53, N^2-(2-(1-(Cyclopropylsulfonyl)-1H-pyrazol-4-yl)pyrimidin-4-yl)-N^4-((1s,4s)-4-((2,2-difluoroethyl)amino)cyclohexyl)-5-(2-(trifluoromethyl)thiazol-4-yl)pyridine-2,4-diamine] | 9.4 nM | 8.5 nM | 11.3 nM | 2.9 nM | 14.2 nM | 7.7 nM | 264 nM | 15 nM | > 10000 nM | 105 nM |
| O=S(=O)(C1CC1)n1cc(-c2nccc(Nc3cc(N[C@H]4CC[C@@H](CO)CC4)c(-c4cc5n(n4)CCCC5)cn3)n2)cn1 [Example 60, ((1s,4s)-4-((2-((2-(1-(Cyclopropylsulfonyl)-1H-pyrazol-4-yl)pyrimidin-4-yl)amino)-5-(4,5,6,7-tetrahydropyrazolo[1,5-a]pyridin-2-yl)pyridin-4-yl)amino)cyclohexyl)methanol] | 4.3 nM | 1.1 nM | – | 0.5 nM | 2.5 nM | 1.1 nM | 2.4 nM | 1.1 nM | 326 nM | 2.2 nM |
| CC(C)(O)[C@H]1CC[C@@H](Nc2cc(Nc3ccnc(-c4cnn(S(=O)(=O)C5CC5)c4)n3)ncc2-c2cc3n(n2)CCCC3)CC1 [Example 61, 2-((1s,4s)-4-((2-((2-(1-(Cyclopropylsulfonyl)-1H-pyrazol-4-yl)pyrimidin-4-yl)amino)-5-(4,5,6,7-tetrahydropyrazolo[1,5-a]pyridin-2-yl)pyridin-4-yl)amino)cyclohexyl)propan-2-ol] | 4.3 nM | 2 nM | 2.4 nM | 0.8 nM | 6.2 nM | 1.9 nM | 8.8 nM | 2.9 nM | 2900 nM | 7.9 nM |

The next molecules have a lower IC50 (EGFR del19/T790M/C797S; [1]) than those just listed; values first:

| IC50 (EGFR del19/T790M/C797S; [1]) | IC50 (EGFR del19/T790M/C797S; [2]) | IC50 (EGFR L858R/T790M/C797S; [3]) | IC50 (EGFR L858R/T790M/C797S; [4]) | IC50 (EGFR del19/C797S; [5]) | IC50 (EGFR del19/C797S; [6]) | IC50 (EGFR L858R/C797S; [7]) | IC50 (EGFR L858R/C797S; [8]) | IC50 (EGFR wildtype (WT); [9]) | IC50 (EGFR wildtype (WT); [10]) | Structure (SMILES) |
| --- | --- | --- | --- | --- | --- | --- | --- | --- | --- | --- |
| 0.8 nM | 0.7 nM | 0.6 nM | 0.3 nM | 1.9 nM | 1 nM | – | 0.6 nM | 368 nM | – | C[C@]1(O)CC[C@@H](Nc2cc(Nc3ccnc(-c4cnn(S(=O)(=O)C5CC5)c4)n3)ncc2-c2cc3n(n2)CCCC3)CC1 [Example 59, (1s,4s)-4-((2-((2-(1-(Cyclopropylsulfonyl)-1H-pyrazol-4-yl)pyrimidin-4-yl)amino)-5-(4,5,6,7-tetrahydropyrazolo[1,5-a]pyridin-2-yl)pyridin-4-yl)amino)-1-methylcyclohexan-1-ol] |
| 0.6 nM | 0.6 nM | 0.6 nM | 0.4 nM | 0.8 nM | 1.3 nM | 10 nM | 1.6 nM | > 10000 nM | 18 nM | O=C1CC[C@]2(CC[C@H](Nc3cc(Nc4ccnc(-c5cnn(S(=O)(=O)C6CC6)c5)n4)ncc3-c3csc(C(F)(F)F)n3)CC2)N1 [Example 52, (5s,8s)-8-((2-((2-(1-(Cyclopropylsulfonyl)-1H-pyrazol-4-yl)pyrimidin-4-yl)amino)-5-(2-(trifluoromethyl)thiazol-4-yl)pyridin-4-yl)amino)-1-azaspiro[4.5]decan-2-one] |
| 0.6 nM | – | 0.8 nM | – | 13.2 nM | – | 7.1 nM | – | > 10000 nM | – | CN[C@H]1CC[C@@H](Nc2cc(Nc3ccnc(-c4cnn(S(=O)(=O)C5CC5)c4)n3)ncc2-c2csc(C(C)(C)O)n2)CC1 [Example 56, 2-(4-(6-((2-(1-(Cyclopropylsulfonyl)-1H-pyrazol-4-yl)pyrimidin-4-yl)amino)-4-(((1s,4s)-4-(methylamino)cyclohexyl)amino)pyridin-3-yl)thiazol-2-yl)propan-2-ol] |
